Laboratory results: ChEMBL document CHEMBL1201862, “PubChem BioAssay data set” (2004)
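1) Cells in 96-well plates. 2) Compound, 48 h, 5 concentrations. 3) Linear interpolation between surrounding doses. 4) Unreached endpoint = highest concentration. Abbreviation: GI50, concentration required for 50% inhibition of growth.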 Active and inactive are the calls of the source. Rule as the data show it: active = GI50 up to about 1.1 µM and inactive = higher.

Columns and labels:
Assay in all cases: NCI-60 cell line screen, 48 h
LOX IMVI = tested on: LOX IMVI
SW-620 = tested on: SW-620
CAKI-1 = tested on: CAKI-1
OVCAR-5 = tested on: OVCAR-5
NCI-H23 = tested on: NCI-H23
SF-539 = tested on: SF-539
RXF 393 = tested on: RXF 393
Malme-3M = tested on: Malme-3M
UACC-257 = tested on: UACC-257
U-251 = tested on: U-251
SK-MEL-5 = tested on: SK-MEL-5
TK-10 = tested on: TK-10
RPMI-8226 = tested on: RPMI-8226
SN12C = tested on: SN12C

Compound | GI50 (LOX IMVI) | GI50 (SW-620) | GI50 (CAKI-1) | GI50 (OVCAR-5) | GI50 (NCI-H23) | GI50 (SF-539) | GI50 (RXF 393) | GI50 (Malme-3M) | GI50 (UACC-257) | GI50 (U-251) | GI50 (SK-MEL-5) | GI50 (TK-10) | GI50 (RPMI-8226) | GI50 (SN12C)
CC(C)c1cccc(C(C)C)c1NC1=CC(=O)C(=O)c2ccccc21 | 36.3 µM (inactive) | > 100 µM (inactive) | > 100 µM (inactive) | > 100 µM (inactive) | 72.9 µM (inactive) | > 100 µM (inactive) | > 100 µM (inactive) | > 100 µM (inactive) | 67 µM (inactive) | > 100 µM (inactive) | > 100 µM (inactive) | > 100 µM (inactive) | > 100 µM (inactive) | > 100 µM (inactive)
COC(=O)C(=O)C(C(=O)C(=O)Nc1cccc(C(C)=O)c1)c1nc2ccc([N+](=O)[O-])cc2nc1O (centres undefined) | > 100 µM (inactive) | > 100 µM (inactive) | > 100 µM (inactive) | > 100 µM (inactive) | > 100 µM (inactive) | > 100 µM (inactive) | > 100 µM (inactive) | > 100 µM (inactive) | > 100 µM (inactive) | > 100 µM (inactive) | > 100 µM (inactive) | > 100 µM (inactive) | > 100 µM (inactive) | > 100 µM (inactive)
FC(F)(F)c1nc(Br)[nH]c1C(F)(F)F | > 100 µM (inactive) | > 100 µM (inactive) | > 100 µM (inactive) | > 100 µM (inactive) | 86.7 µM (inactive) | > 100 µM (inactive) | 73.5 µM (inactive) | > 100 µM (inactive) | > 100 µM (inactive) | 67.5 µM (inactive) | 76.7 µM (inactive) | > 100 µM (inactive) | 51.3 µM (inactive) | 69 µM (inactive)
O=C(O)/C(=C/C=C/c1ccccc1)c1csc(-c2nc(/C(=C\C=C\c3ccccc3)C(=O)O)cs2)n1 | 29.5 µM (inactive) | 39.4 µM (inactive) | – | > 100 µM (inactive) | > 10 µM (inactive) | 21.2 µM (inactive) | 25.2 µM (inactive) | 27.2 µM (inactive) | 34.9 µM (inactive) | 38.5 µM (inactive) | 33 µM (inactive) | > 100 µM (inactive) | 22.7 µM (inactive) | 28.7 µM (inactive)
CC(=O)O[C@H]1CC[C@@]2(C)C(=CC[C@@H]3C2CC[C@]2(C)Nc4oncc4CC32)C1 (some centres undefined) | – | 43.3 µM (inactive) | 31.3 µM (inactive) | > 100 µM (inactive) | 44 µM (inactive) | 44.9 µM (inactive) | 38.8 µM (inactive) | 25.3 µM (inactive) | 31.7 µM (inactive) | 37.4 µM (inactive) | 17.8 µM (inactive) | 49.2 µM (inactive) | 16.9 µM (inactive) | –
O=C(Nc1ccc(C(F)(F)F)cc1[N+](=O)[O-])C(=O)C1NC(=S)NC1=O (centres undefined) | > 100 µM (inactive) | > 100 µM (inactive) | 54.1 µM (inactive) | > 100 µM (inactive) | > 100 µM (inactive) | > 100 µM (inactive) | > 100 µM (inactive) | > 100 µM (inactive) | > 100 µM (inactive) | > 100 µM (inactive) | > 100 µM (inactive) | > 100 µM (inactive) | > 100 µM (inactive) | 2.26 µM (inactive)
COc1cccc(C2=NC(C(C)C)CO2)c1OC (centres undefined) | > 100 µM (inactive) | > 100 µM (inactive) | > 100 µM (inactive) | > 100 µM (inactive) | > 100 µM (inactive) | > 100 µM (inactive) | > 100 µM (inactive) | > 100 µM (inactive) | > 100 µM (inactive) | – | > 100 µM (inactive) | > 100 µM (inactive) | > 100 µM (inactive) | > 100 µM (inactive)
Cn1cc2ccccc2c1-c1nc(F)nc(Oc2ccc3c(c2)CC[C@@H]2C3CC[C@@]3(C)C2C[C@H](O)[C@@H]3O)n1 (some centres undefined) | – | 4.14 µM (inactive) | 18.1 µM (inactive) | 19.2 µM (inactive) | 18.3 µM (inactive) | 13.5 µM (inactive) | 19.4 µM (inactive) | 24.8 µM (inactive) | 23.5 µM (inactive) | 10.3 µM (inactive) | 17.7 µM (inactive) | 20.4 µM (inactive) | 16.7 µM (inactive) | 13.7 µM (inactive)
C[N+](C)(C)CC(=O)N/N=C(\C(=O)NC1=C(Cl)C(=O)c2ccccc2C1=O)C(C#N)c1csc(-c2ccc([N+](=O)[O-])cc2)n1 (centres undefined) | > 100 µM (inactive) | > 100 µM (inactive) | > 100 µM (inactive) | > 100 µM (inactive) | > 100 µM (inactive) | > 100 µM (inactive) | > 100 µM (inactive) | > 100 µM (inactive) | > 100 µM (inactive) | > 100 µM (inactive) | > 100 µM (inactive) | > 100 µM (inactive) | > 100 µM (inactive) | > 100 µM (inactive)
CN1C(=O)CSC1=S [3-METHYL-RHODANINE] | > 100 µM (inactive) | > 100 µM (inactive) | > 100 µM (inactive) | > 100 µM (inactive) | > 100 µM (inactive) | > 100 µM (inactive) | > 100 µM (inactive) | > 100 µM (inactive) | > 100 µM (inactive) | > 100 µM (inactive) | > 100 µM (inactive) | > 100 µM (inactive) | > 100 µM (inactive) | > 100 µM (inactive)
O=C(NCc1ccc2ccc3cccnc3c2n1)c1ccc[n+](Cc2ccccc2)c1 | > 100 µM (inactive) | > 100 µM (inactive) | – | > 100 µM (inactive) | > 100 µM (inactive) | > 100 µM (inactive) | > 100 µM (inactive) | 75.2 µM (inactive) | > 100 µM (inactive) | > 100 µM (inactive) | 74 µM (inactive) | > 100 µM (inactive) | 54.8 µM (inactive) | > 100 µM (inactive)
COc1ccccc1OCc1nnc(SCC(=O)O)n1-c1ccccc1 | > 100 µM (inactive) | – | – | > 100 µM (inactive) | > 100 µM (inactive) | > 100 µM (inactive) | – | > 100 µM (inactive) | > 100 µM (inactive) | > 100 µM (inactive) | > 100 µM (inactive) | > 100 µM (inactive) | > 100 µM (inactive) | > 100 µM (inactive)
COC(=O)[C@H]1C2CC[C@@H]3C45C[C@@H](c6ccoc6)O[C@@H]4O[C@@H](O2)C31CCC5C (some centres undefined) | > 100 µM (inactive) | > 100 µM (inactive) | > 100 µM (inactive) | > 100 µM (inactive) | > 100 µM (inactive) | > 100 µM (inactive) | – | > 100 µM (inactive) | > 100 µM (inactive) | > 100 µM (inactive) | > 100 µM (inactive) | > 100 µM (inactive) | > 100 µM (inactive) | > 100 µM (inactive)
NC(=O)c1ccccc1NC(=O)C(=O)Cc1nc2ccccc2nc1O | > 100 µM (inactive) | > 100 µM (inactive) | > 100 µM (inactive) | 96.2 µM (inactive) | > 100 µM (inactive) | 48.5 µM (inactive) | > 100 µM (inactive) | > 100 µM (inactive) | > 100 µM (inactive) | > 100 µM (inactive) | > 100 µM (inactive) | > 100 µM (inactive) | > 100 µM (inactive) | –
CN/N=C(/CC(=O)c1sc(NNC(C)=O)nc1C)C(=O)Nc1ccc(OC)cc1OC | > 100 µM (inactive) | > 100 µM (inactive) | > 100 µM (inactive) | > 100 µM (inactive) | > 100 µM (inactive) | > 100 µM (inactive) | – | > 100 µM (inactive) | > 100 µM (inactive) | > 100 µM (inactive) | > 100 µM (inactive) | > 100 µM (inactive) | > 100 µM (inactive) | > 100 µM (inactive)
CC(C)C(NCc1c2ccccc2[n+]([O-])c2ccccc12)C(=O)O (centres undefined) | 33.8 µM (inactive) | 48.6 µM (inactive) | > 100 µM (inactive) | > 100 µM (inactive) | 44.1 µM (inactive) | – | – | 92.7 µM (inactive) | > 100 µM (inactive) | 38.1 µM (inactive) | 46.5 µM (inactive) | > 100 µM (inactive) | 28.2 µM (inactive) | 44.8 µM (inactive)
C=CCCCCCCCC(O)C1C[C@H](O)C(CCCCC)O1 (some centres undefined) | 19.6 µM (inactive) | 21.1 µM (inactive) | 17.9 µM (inactive) | – | 16.9 µM (inactive) | 15.8 µM (inactive) | 17.1 µM (inactive) | 17.3 µM (inactive) | > 10 µM (inactive) | 16 µM (inactive) | 18.3 µM (inactive) | 19 µM (inactive) | 17.1 µM (inactive) | 19.5 µM (inactive)
Clc1ccc(CNc2nc3ccccc3nc2-c2cccs2)c(Cl)c1 | – | > 100 µM (inactive) | – | > 100 µM (inactive) | 68.5 µM (inactive) | > 100 µM (inactive) | 73.8 µM (inactive) | > 100 µM (inactive) | > 100 µM (inactive) | 89.3 µM (inactive) | – | > 100 µM (inactive) | 56.1 µM (inactive) | > 100 µM (inactive)
CCCCCN(CCCCC)C(=O)[C@H](CCC(=O)OCc1ccccc1)NC(=O)c1cc2ccccc2[nH]1 | > 100 µM (inactive) | > 100 µM (inactive) | > 100 µM (inactive) | > 100 µM (inactive) | > 100 µM (inactive) | > 100 µM (inactive) | > 100 µM (inactive) | > 100 µM (inactive) | > 100 µM (inactive) | > 100 µM (inactive) | – | – | 0.343 µM (active) | > 100 µM (inactive)
Cc1ccc(NC(=O)CCC(=O)C2CC(=O)CCC2=O)cc1C (centres undefined) | > 100 µM (inactive) | > 100 µM (inactive) | > 100 µM (inactive) | > 100 µM (inactive) | > 100 µM (inactive) | > 100 µM (inactive) | > 100 µM (inactive) | > 100 µM (inactive) | > 100 µM (inactive) | > 100 µM (inactive) | > 100 µM (inactive) | > 100 µM (inactive) | – | > 100 µM (inactive)
